Laboratory results reported in patent publication US6376510B1, “Neuromuscular relaxants” (Newlaxant LLC, priority 1997, dated 2002).
Read-outs that look alike come from different tables or passages of the source.

What was measured:
[1] = system: anesthetized rats (evoked responses of anterior tibial muscle); assay: In vivo neuromuscular block and cardiovascular side effects, anesthetized rat (Example 8, Table 3); settings: for RI (recovery index): spontaneous recovery, 25-75% neuromuscular response; for Onset: time to 80-85% neuromuscular block
From the text: The neuromuscular blocking activity and other effects (e.g. cardiovascular side effects) of selected agents were investigated on several different experimental animals. Justification for this approach lies in the commonly known fact that the pharmacodynamic and pharmacokinetic properties of these agents are markedly variable from species to species. Therefore, the most important aspects of the projected therapeutic utility of these agents, e.g., neuromuscular blocking potency, onset and duration of action, and side effects cannot be ascertained in “in vitro” preparations or by using only one species of animals.
a) Adult, male albino rats were anesthetized with pentobarbital injected intraperitoneally. The trachea was cannulated for artificial respiration via a small animal respirator. The carotid artery was cannulated for recording blood pressure via a transducer and heart rate by a cardiotachograph on a polygraph. One external jugular vein was cannulated for i.v. drug administration. Neuromuscular function was monitored by electromyography, recording evoked responses from the anterior tibial muscle as a result of supramaximal nerve stimuli consisting of single or “train-of-four” rectangular pulses of 0.1-0.2 msec duration every 10-12 seconds, delivered to the sciatic or common peroneal nerve by a laboratory nerve stimulator. Another mode of stimulation included repeated single stimuli delivered at 0.1 Hz or 1 Hz. […] The agents were dissolved in physiologic saline and injected intravenously at appropriate time intervals. The intensity, onset, and duration of neuromuscular block and its type were determined with each agent. Through administering several doses, the doses corresponding to 50%, 80% and 90% neuromuscular block were determined. All agents were compared with selected standard neuromuscular blocking compounds, e.g. succinylcholine, pancuronium, mivacurium, or rocuronium.
Onset=time in minutes to 80-85% neuromuscular block.
RI=recovery index, minutes, spontaneous recovery, 25-75% neuromuscular response.
VB=vagal block, %, at 80-85% neuromuscular blocking dose.
ΔHR=change in heart rate, %, at 80-85% neuromuscular blocking dose.
ΔBP=change in arterial blood pressure, %, at 80-85% neuromuscular blocking dose.

[2] = system: anesthetized juvenile pigs; assay: animal or person; assay type: in vivo; settings: pig; for ED50: intravenous dose causing 50% neuromuscular block; for RI (recovery index): spontaneous recovery, 25-75% neuromuscular response; for Onset: time to 80-85% neuromuscular block
From the text: Both electromyographic and mechanomyographic responses can be quantified.
The techniques described under a) and b) were employed in other species as needed with the modification that juvenile pigs were initially anesthetized with inhalation of halothane (Table 5) and monkeys were initially sedated with intramuscular ketamine injections prior to inducing and maintaining general anesthesia using pentobarbital and propofol administered intravenously (Table 6).

[3] = system: rabbits; assay: In vivo neuromuscular block and cardiovascular side effects, rabbit (Example 8, Table 7); settings: for ED50: intravenous dose causing 50% neuromuscular block; for RI (recovery index): spontaneous recovery, 25-75% neuromuscular response; for Onset: time to 80-85% neuromuscular block
[4] = rat, at 80-85% neuromuscular blocking dose
[5] = rat, intravenous dose causing 50% neuromuscular block
[6] = at 80-85% neuromuscular blocking dose
[7] = Oryctolagus cuniculus, read-out: ED50

| SMILES | ED50 ([1]; Rattus norvegicus, iv) [mg/kg] | VB (vagal block) [1, 4] [%] | ΔBP (change in arterial blood pressure) [1, 4] [%] | ΔH (change in heart rate) [1, 4] [%] | RI (recovery index) ([1]; rat) [min] | Onset ([1]; rat) [min] | RI (recovery index) [2] [min] | Onset [2] [min] | RI (recovery index) [3] [min] | Onset [3] [min] | ED50 [3, 7] [mg/kg] | ΔBP (change in arterial blood pressure) [3, 6] [%] | ΔH (change in heart rate) [3, 6] [%] | other results |
| --- | --- | --- | --- | --- | --- | --- | --- | --- | --- | --- | --- | --- | --- | --- |
| C[N+]1(Cc2ccccc2)[C@@H]2CC[C@H]1C[C@@H](OC(=O)CCCC(=O)O[C@H]1C[C@H]3CC[C@@H](C1)[N+]3(C)Cc1ccccc1)C2.[Br-].[Br-] (stereo partly drawn) [bis[N-benzyltropanium-3α-yl]glutarate dibromide, reference compound] | 5.5 | 100 | −10 | 0 | 3.7 | 2.5 |  |  |  |  |  |  |  |  |
| CCC(=O)Oc1ccc(C[N+]2(C)C3CCCC2CC(OC(=O)C2CCC2C(=O)OC2CC4CCCC(C2)[N+]4(C)Cc2ccc(OC(=O)CC)c(OC(=O)CC)c2)C3)cc1OC(=O)CC.[Br-].[Br-] (centres unmarked) [bis[N-(3,4-dipropionyloxybenzyl)granataninium-3-yl]cyclobutane-1,2-dicarboxylate dibromide] |  |  |  |  | 0.35 | 0.45 | 0.4 | 0.5 | 0.5 | 0.55 |  |  |  | VB (vagal block) ([2]; in vivo): 18%; ΔBP (change in arterial blood pressure) ([2]; in vivo): 0%; ΔH (change in heart rate) ([2]; in vivo): 0%; ED50 [2]: 0.19 mg/kg; ΔBP (change in arterial blood pressure) ([3]; in vivo): 0%; ΔH (change in heart rate) ([3]; in vivo): 0%; ED50 [3]: 0.225 mg/kg; VB (vagal block) ([1]; rat, in vivo): 0%; ΔBP (change in arterial blood pressure) ([1]; rat, in vivo): 0%; ΔH (change in heart rate) ([1]; rat, in vivo): 0%; ED50 [1, 5]: 0.155 mg/kg |
| CCC(=O)Oc1ccc(C[N+]2(C)[C@@H]3CC[C@H]2C[C@@H](OC(=O)C2CCC2C(=O)O[C@H]2C[C@H]4CC[C@@H](C2)[N+]4(C)Cc2ccc(OC(=O)CC)c(OC(=O)CC)c2)C3)cc1OC(=O)CC.[Br-].[Br-] (stereo partly drawn) [bis[N-(3,4-dipropionyloxybenzyl)tropanium-3α-yl]cyclobutane-1,2-dicarboxylate dibromide] | 0.238 | 17 | 0 | 0 | 0.6 | 0.6 | 0.6 | 0.7 | 0.5 | 0.87 | 0.128 | 0 | 0 | ED50 ([2]; Sus scrofa, read-out: ED50): 0.317 mg/kg; VB (vagal block) [2, 6]: 50%; ΔBP (change in arterial blood pressure) [2, 6]: 0%; ΔH (change in heart rate) [2, 6]: 0% |
| COc1ccc(OC)c(C[N+]2(C)C3CCC2CC(OC(=O)C2C4C=CC(C4)C2C(=O)OC2CC4CCC(C2)[N+]4(C)Cc2cc(OC)ccc2OC)C3)c1.[Br-].[Br-] (stereo not drawn) [bis[N-(2,5-dimethoxybenzyl)tropanium-3α-yl]trans-3,6-endomethylene-1,2,3,6-tetrahydrophthalate dibromide] |  | 32 | 0 | 0 | 1.9 | 1 |  |  | 9 | 4 |  |  |  | ΔBP (change in arterial blood pressure) ([3]; in vivo): 0%; ΔH (change in heart rate) ([3]; in vivo): 0%; ED50 [3]: 0.01 mg/kg; ED50 [1, 5]: 0.057 mg/kg |
| CC[N+]1(C)[C@@H]2CC[C@H]1C[C@@H](OC(=O)CCCCC(=O)O[C@H]1C[C@H]3CC[C@@H](C1)[N+]3(C)CC)C2.[I-].[I-] (stereo partly drawn) [bis[N-ethyltropanium-3α-yl]adipate diiodide, reference compound] |  |  |  |  |  |  |  |  | 9 | 2.2 | 0.15 | 0 | 0 |  |
| C[N+]1(CC=Cc2ccccc2)[C@@H]2CC[C@H]1C[C@@H](OC(=O)CCCCCCCCCCC(=O)O[C@H]1C[C@H]3CC[C@@H](C1)[N+]3(C)CC=Cc1ccccc1)C2.[Br-].[Br-] (stereo partly drawn) [bis[N-(3-(phenyl)prop-2-enyl)tropanium-3α-yl]1,10-decanedicarboxylate dibromide, reference compound] |  |  |  |  |  |  | 6.4 | 1.60 |  |  |  |  |  | ED50 ([2]; Sus scrofa, read-out: ED50): 0.17 mg/kg; VB (vagal block) [2, 6]: 27%; ΔBP (change in arterial blood pressure) [2, 6]: −10%; ΔH (change in heart rate) [2, 6]: 0% |
| COc1cc(C[N+]2(C)[C@@H]3CC[C@H]2C[C@@H](OC(=O)C2CCC2C(=O)O[C@H]2C[C@H]4CC[C@@H](C2)[N+]4(C)Cc2cc(OC)c(OC(C)=O)c(OC)c2)C3)cc(OC)c1OC(C)=O.[Br-].[Br-] (stereo partly drawn) [bis[N-(4-acetoxy-3,5-dimethoxybenzyl)tropanium-3α-yl]cyclobutane-1,2-dicarboxylate dibromide] | 0.367 | 20 | 0 | 0 | 0.45 | 0.4 |  |  | 0.55 | 0.5 | 0.298 | 0 | 0 |  |
| C[N+]1(C)[C@@H]2CC[C@H]1C[C@@H](OC(=O)CCCC(=O)O[C@H]1C[C@H]3CC[C@@H](C1)[N+]3(C)C)C2.[I-].[I-] [bis[N-methyltropanium-3α-yl]glutarate diiodide, reference compound] | 2 | 100 | 0 | 0 | 4.2 | 1.2 |  |  |  |  |  |  |  |  |
| COc1cc(C[N+]23CCC(CC2)C(OC(=O)[C@@H]2[C@@H](C(=O)OC4C[N+]5(Cc6ccc(OC(C)=O)c(OC)c6)CCC4CC5)[C@H]4C=C[C@@H]2C4)C3)ccc1OC(C)=O.[Br-].[Br-] (relative stereo) [bis[N-(4-acetoxy-3-methoxybenzyl)quinuclidinium-3-yl]trans-3,6-endomethylene-1,2,3,6-tetrahydrophthalate dibromide] |  |  |  |  | 3 | 1.8 |  |  | 4.5 | 2.8 |  |  |  | ΔBP (change in arterial blood pressure) ([3]; in vivo): 0%; ΔH (change in heart rate) ([3]; in vivo): 0%; ED50 [3]: 0.115 mg/kg; VB (vagal block) ([1]; rat, in vivo): 70%; ΔBP (change in arterial blood pressure) ([1]; rat, in vivo): −10%; ΔH (change in heart rate) ([1]; rat, in vivo): −5%; ED50 [1, 5]: 2 mg/kg |
| C[N+]1(Cc2ccccc2)[C@@H]2CC[C@H]1C[C@@H](OC(=O)CCCCCCCCC(=O)O[C@H]1C[C@H]3CC[C@@H](C1)[N+]3(C)Cc1ccccc1)C2.[Br-].[Br-] (stereo partly drawn) [bis[N-benzyltropanium-3α-yl]sebacate dibromide, reference compound] |  |  |  |  |  |  |  |  | 6 | 2.3 | 0.075 | 0 | 0 |  |
| CCCCC[N+]1(C)[C@@H]2CC[C@H]1C[C@@H](OC(=O)CCCCCCCCC(=O)O[C@H]1C[C@H]3CC[C@@H](C1)[N+]3(C)CCCCC)C2.[Br-].[Br-] (stereo partly drawn) [bis[N-(pentyl)tropanium-3α-yl]sebacate dibromide, reference compound] |  |  |  |  |  |  | 6.9 | 2.00 |  |  |  |  |  | ED50 ([2]; Sus scrofa, read-out: ED50): 0.3 mg/kg; VB (vagal block) [2, 6]: 50%; ΔBP (change in arterial blood pressure) [2, 6]: 0%; ΔH (change in heart rate) [2, 6]: 0% |
| C[N+]1(Cc2ccccc2Br)[C@@H]2CC[C@H]1C[C@@H](OC(=O)CCCC(=O)O[C@H]1C[C@H]3CC[C@@H](C1)[N+]3(C)Cc1ccccc1Br)C2.[Br-].[Br-] (stereo partly drawn) [bis[N-(2-bromobenzyl)tropanium-3α-yl]glutarate dibromide, reference compound] | 1.4 | 100 | −9 | 0 | 3.6 | 2.3 |  |  |  |  |  |  |  |  |
